From patent US20230330280A1, “PREPARATIONS OF RADIUM-224 AND PROGENIES FOR USE IN RADIONUCLIDE THERAPY IN COMBINATION WITH DNA REPAIR INHIBITORS” (priority 2020, published 2023)
Read-outs that look alike come from different tables or passages of the source.

Key:
[1] = system: SKOV-3 (adenocarcinoma) ovarian cancer cell line; experiment: CyQuant NF cell proliferation assay (DNA content), single agents and paired combinations, SKOV-3; assay type: cell-based; details: Homo sapiens
Source text: (§1) Ovarian cancer cell lines: ES-2 (clear cell carcinoma) and SKOV-3 (adenocarcinoma), were used to investigate the pharmacodynamic interactions resulting from the paired combination of Radium-224 (^224Ra) with a DNA repair inhibitor exemplified by the poly (ADP-ribose) polymerase inhibitors (PARPi); niraparib and olaparib.

[2] = system: ES-2 (clear cell carcinoma) ovarian cancer cell line; experiment: CyQuant NF cell proliferation assay (DNA content), single agents and paired combinations, ES-2; assay type: cell-based
Source text: as §1

[3] = SK-OV-3, 72 h, SKOV-3, Day 3, PARPi in paired combination with 224Ra, read-out: Paired combination IC50
[4] = SK-OV-3, 72 h, SKOV-3, Day 3, single agent, read-out: Single agent IC50
[5] = SK-OV-3, 96 h, SKOV-3, Day 4, PARPi in paired combination with 224Ra, read-out: Paired combination IC50
[6] = SK-OV-3, 96 h, SKOV-3, Day 4, single agent, read-out: Single agent IC50
[7] = SK-OV-3, 120 h, SKOV-3, Day 5, PARPi in paired combination with 224Ra, read-out: Paired combination IC50
[8] = SK-OV-3, 120 h, SKOV-3, Day 5, single agent, read-out: Single agent IC50
[9] = 72 h, ES-2, Day 3, PARPi in paired combination with 224Ra, read-out: Paired combination IC50
[10] = 72 h, ES-2, Day 3, single agent, read-out: Single agent IC50
[11] = 96 h, ES-2, Day 4, PARPi in paired combination with 224Ra, read-out: Paired combination IC50
[12] = 96 h, ES-2, Day 4, single agent, read-out: Single agent IC50
[13] = 120 h, ES-2, Day 5, PARPi in paired combination with 224Ra, read-out: Paired combination IC50
[14] = 120 h, ES-2, Day 5, single agent, read-out: Single agent IC50

SMILES | IC50 [1, 3] [µM] | IC50 [1, 4] [µM] | IC50 [1, 5] [µM] | IC50 [1, 6] [µM] | IC50 [1, 7] [µM] | IC50 [1, 8] [µM] | IC50 [2, 9] [µM] | IC50 [2, 10] [µM] | IC50 [2, 11] [µM] | IC50 [2, 12] [µM] | IC50 [2, 13] [µM] | IC50 [2, 14] [µM]
NC(=O)c1cccc2cn(-c3ccc([C@@H]4CCCNC4)cc3)nc12 [Niraparib, niraparib] | 2.45 | 5.16 | 0.43 | 2.83 | 0.22 | 2.2 | 0.42 | 0.69 | 0.25 | 0.78 | 0.36 | 0.62
O=C(c1cc(Cc2n[nH]c(=O)c3ccccc23)ccc1F)N1CCN(C(=O)C2CC2)CC1 [Olaparib, olaparib] | 10.2 | 21.4 | 2.67 | 23.6 | 0.81 | 1.83 | 1.43 | 3.51 | 0.5 | 1.23 | 0.93 | 2.21
